{"source": "paper PMC5066151", "about": "(ACS Medicinal Chemistry Letters, 2016)", "key": {"[1]": {"settings": "cited from earlier work"}, "[2]": {"molecular_target": "T1, recombinant human renin (rh-renin) (Homo sapiens, UniProt P00797)", "T1 sequence (P00797 67-406)": "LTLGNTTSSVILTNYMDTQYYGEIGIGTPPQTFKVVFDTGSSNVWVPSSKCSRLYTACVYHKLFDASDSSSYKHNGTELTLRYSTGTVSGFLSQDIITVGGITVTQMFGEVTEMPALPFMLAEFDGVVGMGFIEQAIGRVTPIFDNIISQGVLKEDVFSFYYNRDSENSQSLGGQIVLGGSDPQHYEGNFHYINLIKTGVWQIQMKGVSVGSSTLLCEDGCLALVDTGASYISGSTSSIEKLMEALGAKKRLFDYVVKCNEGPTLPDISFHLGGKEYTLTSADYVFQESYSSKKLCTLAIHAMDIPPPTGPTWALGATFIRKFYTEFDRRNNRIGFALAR", "test": "Rh-renin inhibition assay", "type": "biochemical", "settings": "3R,5S-enantiomer vs 3S,5R-enantiomer; rh-renin or hPRA assay"}, "[3]": {"molecular_target": "T2, endogenous renin in human plasma (Homo sapiens, UniProt P00797)", "T2 sequence (P00797 67-406)": "T1 sequence (P00797 67-406)", "test": "Human plasma renin activity", "type": "biochemical", "settings": "methoxypropylamino vs furfurylamine S3sp binder (compound 5)"}, "[4]": {"test": "Pharmacokinetic analysis in rat cassette dosing", "type": "in vivo", "settings": "1 mg/kg p.o., n = 3"}, "[5]": {"molecular_target": "pepsin (Homo sapiens, UniProt P0DJD8)", "sequence (P0DJD8 63-388)": "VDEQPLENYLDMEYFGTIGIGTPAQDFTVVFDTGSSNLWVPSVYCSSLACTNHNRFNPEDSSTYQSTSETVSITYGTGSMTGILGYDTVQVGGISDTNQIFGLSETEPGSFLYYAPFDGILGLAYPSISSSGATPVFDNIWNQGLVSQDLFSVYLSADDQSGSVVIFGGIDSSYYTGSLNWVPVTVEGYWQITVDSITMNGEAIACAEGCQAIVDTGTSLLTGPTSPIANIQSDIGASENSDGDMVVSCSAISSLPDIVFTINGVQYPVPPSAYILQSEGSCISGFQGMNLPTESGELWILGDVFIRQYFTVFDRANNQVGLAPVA", "test": "Selectivity against aspartic protease pepsin", "type": "biochemical"}, "[6]": {"system": "human-angiotensinogen and human-renin double transgenic rats (dTg rat)", "test": "Antihypertensive effect, systolic blood pressure by tail-cuff in dTg rat model"}}}
{"smiles": "CC(C)CN(C(=O)c1cnc(C(C)(C)C)nc1NCc1ccco1)[C@H]1CCCNC1", "note": "[Compound 1]", "values": [{"measurement": "oral bioavailability in rats", "setting": "[1]", "result": 13.8, "unit": "%"}]}
{"smiles": "COC(=O)[C@H]1CNC[C@@H](N(CC(C)C)C(=O)c2cnc(C(C)(C)C)nc2NCc2ccco2)C1", "note": "[Compound 5]", "values": [{"measurement": "fold more potent toward renin than its enantiomer 4", "setting": "[2]", "result": "about 30 fold"}]}
{"smiles": "COCCCNc1nc(C(C)(C)C)ncc1C(=O)N(CC(C)C)[C@@H]1CNC[C@H](C(=O)OC)C1", "note": "[Compound 6]", "values": [{"measurement": "fold decrease in renin inhibitory activity relative to the furfurylamine moiety", "setting": "[3]", "result": 10, "unit": "fold"}]}
{"smiles": "COCCCNc1nc(C(C)(C)C)ncc1C(=O)N(CC(C)C)[C@@H]1CNC[C@H](C(=O)N2CCOCC2)C1", "note": "[Compound 8]", "values": [{"measurement": "AUCpo", "setting": "[4]", "result": "not detected"}]}
{"smiles": "COCCCCn1c(C(=O)N(CC(C)C)[C@@H]2CNC[C@H](C(=O)N3CCOCC3)C2)nc2ccccc21.Cl", "note": "[Compound 10, 1-(4-methoxybutyl)-N-(2-methylpropyl)-N-[(3S,5R)-5-(morpholin-4-yl)carbonylpiperidin-3-yl]-1H-benzimidazole-2-carboxamide hydrochloride]", "values": [{"measurement": "IC50", "setting": "[5]", "result": "> 10", "unit": "µM"}, {"measurement": "antihypertensive efficacy (SBP) compared with aliskiren 75 mg/kg", "setting": "[6]; 3 mg/kg p.o., 5 h after oral administration", "result": "comparable to that of aliskiren"}, {"measurement": "antihypertensive efficacy (SBP) compared with aliskiren 75 mg/kg", "setting": "[6]; 10 mg/kg p.o., 5 and 24 h after administration", "result": "exceeded that of aliskiren"}, {"measurement": "antihypertensive efficacy (SBP)", "setting": "[6]; 3 and 10 mg/kg p.o., SBP at 5 and 24 h", "result": "potent and long-lasting antihypertensive efficacy in a dose-dependent manner"}]}
